Test results published in patent US6391882B1, “4,5,6 and 7-indole and indoline derivatitives, their preparation and use” (H. Lundbeck A/S, priority 1998, dated 2002).
Counter-ions that a name gives are not always drawn.

Compound | melting point [°C]
Fc1ccc2occ(CCCN3CCN(c4cccc5[nH]ccc45)CC3)c2c1 (as salt: hydrochloride) [Compound 1h, 1-(3-(5-Fluoro-3-benzofuranyl)-1-propyl)-4-(1H-indol-4-yl)piperazine] | 230 to 234
C=CCn1ccc2c(N3CCN(CCc4c[nH]c5ccc(F)cc45)CC3)cccc21 (as salt: fumarate) | 210 to 212
N#Cc1c[nH]c2cccc(N3CCN(CCc4c[nH]c5cccc(Cl)c45)CC3)c12 (as salt: fumarate) [Compound 4x, 1-(2-(4-Chloro-1H-indol-3-yl)ethyl)-4-(3-cyano-1H-indol-4-yl)piperazine] | > 250
Brc1cccc2c(CCN3CCN(c4cccc5[nH]ccc45)CC3)c[nH]c12 (as salt: oxalate) [Compound 2i, 1-(2-(7-Bromo-1H-indol-3-yl)ethyl)-4-(1H-indol-4-yl)piperazine] | 149 to 151
N#Cc1c[nH]c2cccc(N3CCN(CCc4coc5ccccc45)CC3)c12 (as salt: oxalate) [Compound 4p, 1-(2-(3-Benzofuranyl)ethyl)-4-(3-cyano-1H-indol-4-yl)piperazine] | 221 to 223
Fc1ccc2occ(CN3CCN(c4cccc5[nH]ccc45)CC3)c2c1 (as salt: hydrochloride) [Compound 4l, 1-(5-Fluoro-3-benzofuranylmethyl)-4-(1H-indol-4-4-yl)piperazine] | 238 to 240
Cc1oc2c(F)c(F)c(F)c(F)c2c1CCN1CCN(c2cccc3[nH]ccc23)CC1 (as salt: hydrochloride) [Compound 1i, 1-(2-(2-Methyl-4,5,6,7-tetrafluoro-3-benzofuranyl)ethyl)-4-(1H-indol-4-yl)piperaziine] | 181 to 187
Cc1ccc2c(CCN3CCN(c4cccc5[nH]ccc45)CC3)coc2c1 (as salt: oxalate) [Compound 4u, 1-(1H-Indol-4-yl)-4-(2-(6-methyl-3-benzofuranyl)ethyl)piperazine] | 190 to 192
Clc1cccc2[nH]cc(CCN3CCN(c4cccc5[nH]ccc45)CC3)c12 (as salt: oxalate) [Compound 2b, 1-(2-(4-Chloro-1H-indol-3-yl)ethyl)-4-(1H-indol-4-yl)piperazine] | 245 to 247
N#Cc1cccc2c(CCN3CCN(c4cccc5[nH]ccc45)CC3)c[nH]c12 (as salt: oxalate) [Compound 1l, 1-(2-(7-Cyano-1H-indol-3-yl)ethyl)-4-(1H-indol-4-yl)piperazine] | 241 to 243
Clc1cccc2c(CCN3CCN(c4cccc5[nH]ccc45)CC3)coc12 (as salt: oxalate) [Compound 4v, 1-(2-(7-Chloro-3-benzofuranyl)ethyl)-4-(1H-indol-4-yl)piperazine] | 216 to 218
Clc1ccc2c(CCN3CCN(c4cccc5[nH]ccc45)CC3)n[nH]c2c1 (as salt: oxalate) [Compound 1k, 1-(2-(6-Chloro-3-indazolyl)ethyl)-4-(1H-indol-4-yl)piperazine] | 255 to 258
Brc1ccc2[nH]cc(CCN3CCN(c4ccc5[nH]ccc5c4)CC3)c2c1 (as salt: fumarate) [Compound 2t, 1-(2-(5-Bromo-1H-indol-3-yl)ethyl)-4-(1H-indol-5-yl)piperazine] | 231 to 233
c1ccc2c(CCCN3CCN(c4cccc5[nH]ccc45)CC3)c[nH]c2c1 (as salt: oxalate) [Compound 1f, 1-(3-(1H-indol-3-yl)-1-propyl)-4-(1H-indol-4-yl)piperazine] | 198 to 204
COC(=O)c1cc(N2CCN(CCc3coc4ccc(F)cc34)CC2)c2cc[nH]c2c1 (as salt: oxalate) [Compound 4h, 1-(2-(5-Fluoro-3-benzofuranyl)ethyl)-4-(6-methoxycarbonyl-1H-indol-4-yl)piperazine] | 227 to 228
C#CCn1ccc2c(N3CCN(CCc4c[nH]c5ccccc45)CC3)cccc21 (as salt: fumarate) | 193 to 195
C#CCn1ccc2c(N3CCN(CCc4c[nH]c5cc(Cl)ccc45)CC3)cccc21 | 197 to 199
Fc1ccc2occ(CCCCN3CCN(c4cccc5[nH]ccc45)CC3)c2c1 (as salt: hydrochloride) [Compound 1d, 1-(4-(5-Fluoro-3-benzofuranyl)-1-butyl)-4-(1H-indol-4-yl)piperazine] | 241 to 244
Fc1ccc2occ(CCCN3CC=C(c4cccc5[nH]ccc45)CC3)c2c1 (as salt: fumarate) [Compound 4s, 1-(3-(5-Fluoro-3-benzofuranyl)-1-propyl)-4-(1H-indol-4-yl)-1,2,3,6-tetrahydropyridine] | 183 to 185
Fc1ccc2[nH]cc(CCN3CCN(c4cccc5[nH]ccc45)CC3)c2c1 (as salt: fumarate) [Compound 2c, 1-(2-(5-Fluoro-1H-indol-3-yl)ethyl)-4-(1H-indol-4-yl)piperazine] | 212 to 215

Compound | melting point [°C]
COC(=O)c1cc(N2CCN(CCc3c[nH]c4ccccc34)CC2)c2cc[nH]c2c1 (as salt: oxalate) [Compound 4f, 1-(2-(1H-indol-3-yl)ethyl)-4-(6-methoxycarbonyl-1H-indol-4-yl)piperazine] | 213 to 216
N#Cc1c[nH]c2cccc(N3CCN(CCc4c[nH]c5cc(Cl)ccc45)CC3)c12 (as salt: fumarate) [Compound 4o, 1-(2-(6-Chloro-1H-indol-3-yl)ethyl)-4-(3-cyano-1H-indol-4-yl)piperazine] | 234 to 236
Cc1ccc2occ(CCN3CCN(c4cccc5[nH]ccc45)CC3)c2c1 (as salt: hydrochloride) [Compound 4q, 1-(1H-Indol-4-yl)-4-(2-(5-methyl-3-benzofuranyl)ethyl)piperazine] | 258 to 260
Clc1ccc2occ(CCN3CCN(c4cccc5[nH]ccc45)CC3)c2c1 (as salt: oxalate) [Compound 4t, 1-(2-(5-Chloro-3-benzofuranyl)ethyl)-4-(1H-indol-4-yl)piperazine] | 200 to 202
Fc1ccc2[nH]cc(CCN3CC=C(c4cccc5[nH]ccc45)CC3)c2c1 (as salt: fumarate) [Compound 2h, 1-(2-(5-Fluoro-1H-indol-3-yl)ethyl)-4-(1H-indol-4-yl)-1,2,3,6-tetrahydropyridine] | 204 to 206
Clc1ccc2[nH]cc(CCN3CCN(c4ccc5[nH]ccc5c4)CC3)c2c1 (as salt: fumarate) [Compound 2u, 1-(2-(5-Chloro-1H-indol-3-yl)ethyl)-4-(1H-indol-5-yl)piperazine] | 232 to 234
C#CCn1ccc2c(N3CCN(CCc4c[nH]c5ccc(Br)cc45)CC3)cccc21 | 154 to 156
c1ccc2c(CCN3CCN(c4cccc5[nH]ccc45)CC3)c[nH]c2c1 (as salt: oxalate) [Compound 1e, 1-(2-(1H-indol-3-yl)ethyl)-4-(1H-indol-4-yl)piperazine] | 167 to 169
N#Cc1c[nH]c2cccc(N3CCN(CCc4coc5ccc(F)cc45)CC3)c12 (as salt: fumarate) [Compound 4n, 1-(3-Cyano-1H-indol-4-yl)-4-(2-(5-fluoro-3-benzofuranyl)ethyl)piperazine] | 235 to 237
COC(=O)c1cc(N2CCN(CCc3c[nH]c4cc(Cl)ccc34)CC2)c2cc[nH]c2c1 (as salt: oxalate) [Compound 4g, 1-(2-(6-Chloro-1H-indol-3-yl)ethyl)-4-(6-methoxycarbonyl-1-H-indol-4-yl)piperazine] | 228 to 230
c1cc(N2CCN(Cc3coc4ccccc34)CC2)c2cc[nH]c2c1 (as salt: oxalate) [Compound 1b, 1-(3-Benzofuranylmethyl)-4-(1H-indol-4-yl)piperazine] | 226 to 228
Clc1ccc2c(CCN3CC=C(c4cccc5[nH]ccc45)CC3)c[nH]c2c1 (as salt: fumarate) [Compound 2g, 1-(2-(6-Chloro-1H-indol-3-yl)ethyl)-4-(1H-indol-4-yl)-1,2,3,6-tetrahydropyridine] | 225 to 226
N#Cc1c[nH]c2cccc(N3CCN(CCc4c[nH]c5ccccc45)CC3)c12 (as salt: fumarate) [Compound 4m, 1-(3-Cyano-1H-indol-4-yl)-4-(2-(1H-indol-3-yl)ethyl)piperazine] | > 250
c1ccc(Cn2ccc3c(N4CCN(CCc5c[nH]c6ccccc56)CC4)cccc32)cc1 (as salt: fumarate) [Compound 2s, 1-(1-Benzyl-1H-indol-4-yl)-4-(2-(1H-indol-3-yl)ethyl)piperazine] | 188 to 190
Fc1ccc2occ(CCN3CCN(c4cccc5[nH]ccc45)CC3)c2c1 (as salt: oxalate) [Compound 1c, 1-(2-(5-Fluoro-3-benzofuranyl)ethyl)-4-(1H-indol-4-yl)piperazine] | 196 to 197
C#CCn1ccc2c(N3CCN(CCc4c[nH]c5ccc(F)cc45)CC3)cccc21 | 153 to 155
c1cc(N2CCN(CCc3n[nH]c4ccccc34)CC2)c2cc[nH]c2c1 (as salt: oxalate) [Compound 1j, 1-(2-(3-Indazolyl)ethyl)-4-(1H-indol-4-yl)piperazine] | 149 to 151
c1ccc2c(CCCCN3CCN(c4cccc5[nH]ccc45)CC3)c[nH]c2c1 (as salt: oxalate) [Compound 1g, 1-(4-(1H-indol-3-yl)-1-butyl)-4-(1H-indol-4yl)piperazine] | 189 to 193
Fc1ccc2[nH]cc(CCN3CCN(c4cccc5c4ccn5Cc4ccccc4)CC3)c2c1 (as salt: fumarate) [Compound 2m, 1-(1-Benzyl-1H-indol-4-yl)-4-(2-(5-fluoro-1H-indol-3-yl)ethyl)piperazine] | 178 to 180
Cc1cccc2occ(CCN3CCN(c4cccc5[nH]ccc45)CC3)c12 (as salt: oxalate) [Compound 4r, 1-(1H-Indol-4-yl)-4-(2-(4-methyl-3-benzofuranyl)ethyl)piperazine] | 204 to 206
